Values joined by “and” are separate entries in the source; they are usually repeats but may differ in a detail not shown here. Identical values can stand only once. Like-named read-outs stand apart in the source and are kept apart here. Each block holds one molecule with its values, some of them ahead of it.
How the values were obtained:
human Gal-3 = target: T1, human Gal-3 (Homo sapiens, UniProt P17931); test: Competitive ELISA-type assay: inhibition of Gal-3 binding to immobilized asialofetuin (ASF); details: for Selectivity for Gal-3: IC50 for Gal-1/IC50 for Gal-3
T1 construct: made in house; host or cells: E. coli Rosetta 2(DE3)pLysS
Description: Microtiter plates (Nunc Immuno Sorb, ThermoFisher Scientific, USA) were coated with ASF (0.1 µM in PBS, pH 7.5, 50 µL/well) and incubated overnight. The wells were washed with 3×250 µL of PBS containing 0.05% Tween (repeated after each step). The wells were then blocked by 2% w/v BSA in PBS buffer (250 µL/well) for 1 h. Serial dilutions of the ligands (glycopolymers or oligosaccharides) in EPBS (2 mM EDTA in PBS) were incubated with Gal-1 or Gal-3 (1.25 µM final concentration) for 2 h. The residual bound galectin was labeled with anti-His antibody conjugated to horseradish peroxidase (Santa Cruz; 1:1000 dilution in PBS, 1 h). TMB One substrate solution (Kem-En-Tech, Denmark; 50 µL/well) was added, and the reactions were incubated until visible blue staining appeared (3–20 min). The reaction was stopped by adding 3 M HCl (50 µL per well), resulting in a color shift to yellow, which was determined spectrophotometrically by an absorbance microplate reader (Sunrise Tecan Group Ltd, CH). The intensity of the signal at 450 nm corresponded to the amount of galectin bound to the wells. Non-linear regression (dose–response inhibition-variable slope) of the sigmoidal curves was used to calculate the values of half-maximal inhibitory constants (IC50) from at least six independent experiments using GraphPad Prism 7 (GraphPad Software, USA).
For the affinity measurement, the competitive ELISA assay with ASF as an immobilized competitor ligand was employed.[51] […] The inhibitory potency of the prepared glycopolymers was compared to the respective monovalent standards (LN1-LN2-tBoc, LN2-LN2-tBoc, LDN-LN2-tBoc) to calculate their relative potencies (rp) for inhibition of Gal-3 (Table 1). Relative potency values thus disclose the extent of the so-called multivalency effect of the glycopolymer – the ability of a ligand bound to a multivalent carrier to get easier access and orientation to the lectin-binding site.[52]

J774A.1 macrophages = test: Gal-3-induced apoptosis of J774A.1 macrophages, Annexin V flow cytometry; type: cell-based, murine; details: 10 µM Gal-3, 24 h, no glycopolymer
Description: For flow cytometry studies, cultured undifferentiated (without any LPS and cytokines) J774A.1 murine macrophages were seeded in a concentration of 10^5 cells/well of the 24-well plate. After 24 h of cultivation, cells were pretreated with the desired concentration of glycopolymers for 5 minutes and afterward treated with 10 μM Gal-3 for 24 h. After harvesting of cells, early and late apoptoses of Gal-3-treated J774A.1 cells in the presence or absence of glycopolymers were evaluated using eBioscience Annexin V apoptosis detection kit (Thermo Fisher Scientific). Flow cytometry was performed using FACS Canto II (BD Biosciences, Franklin Lakes, NJ, USA). Apoptotic half-maximal inhibitory concentrations (IC50) of individual glycopolymers were calculated by nonlinear regression of log(glycopolymer concentration) versus apoptosis response using GraphPad Prism 8 software (version 8.0.1; GraphPad Software, La Jolla, CA, USA).
Tumor-associated macrophages (TAMs) are defined as M1 or M2 subtypes, which differ in their roles in carcinogenesis.[56] Phenotypically M2 macrophages, which are usually more abundant inside tumors and seem to be mainly responsible for the spread of cancer,[57] are chemoattracted into the tumor mass by the Gal-3 gradient.[11] Therefore, we aimed to investigate the inhibitory potential of prepared glycopolymers towards Gal-3 in the context of monocytes and macrophages. […]

[1] = target: T2, recombinant human Gal-3 biotinylated at the lysine of the N-terminal AVI-tag (human, UniProt P17931 1-250, biotin on the lysine of the AVI-tag (…)); test: depletion from solution by coated magnetic beads, ELISA of the supernatant; biotinylated Gal-3 on Dynabeads M-280 Streptavidin; increasing amount of beads incubated with glycosylated IFNγ, 1 h, room temperature; beads separated, IFNγ left in the supernatant measured by ELISA; details: both partners purified
T2 construct: galectin-3, human; Gal-3-AVI construct in pET-Duet1; Held on streptavidin Dynabeads M-280 through the biotin; also called Gal-3-AVI; biotinylated Gal-3; source: E. coli BL21 (DE3) with birA biotin ligase, purified (Ni-NTA)

[2] = IC50 per glycan, Gal-3 1.25 µM, binding to immobilized ASF, read-out: IC50 [µM]/Glycan

T1 sequence (P17931 whole entry): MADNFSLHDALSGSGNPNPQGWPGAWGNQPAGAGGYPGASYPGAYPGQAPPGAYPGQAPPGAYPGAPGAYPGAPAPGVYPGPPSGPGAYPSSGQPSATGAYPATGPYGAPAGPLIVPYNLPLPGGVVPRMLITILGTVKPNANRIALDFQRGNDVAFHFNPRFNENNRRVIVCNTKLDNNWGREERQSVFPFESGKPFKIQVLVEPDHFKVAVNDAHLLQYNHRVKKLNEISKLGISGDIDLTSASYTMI
T2 sequence (P17931 whole entry): as above

Molecule: CC(=O)N[C@@H]1[C@@H](O)[C@H](O[C@@H]2O[C@H](CO)[C@H](O)[C@H](O[C@@H]3O[C@H](CO)[C@@H](O)[C@H](O[C@@H]4O[C@H](CO)[C@H](O)[C@H](O)[C@H]4O)[C@H]3NC(C)=O)[C@H]2O)[C@@H](CO)O[C@H]1NC(=S)NCCNC(=O)OC(C)(C)C [Glycopolymer 4, (tert-Butoxycarbonylamino)ethylthioureidyl β-D-Galactopyranosyl-(1→3)-2-Acetamido-2-Deoxy-β-D-Glucopyranosyl-(1→3)-β-D-Galactopyranosyl-(1→4)-2-Acetamido-2-Deoxy-β-D-Glucopyranoside]
Selectivity for Gal-3 (human Gal-3): 17
IC50 (human Gal-3; [2]): 27.1 ± 4.4 µM
IC50 (human Gal-3; concentration required to inhibit Gal-3 binding to immobilized ASF by 50%, read-out: IC50): 27.1 ± 4.4 µM

Molecule: CC(=O)N[C@@H]1[C@@H](O)[C@H](O[C@@H]2O[C@H](CO)[C@H](O)[C@H](O[C@@H]3O[C@H](CO)[C@@H](O[C@@H]4O[C@H](CO)[C@H](O)[C@H](O)[C@H]4O)[C@H](O)[C@H]3NC(C)=O)[C@H]2O)[C@@H](CO)O[C@H]1NC(=S)NCCNC(=O)OC(C)(C)C [Glycopolymer 5, (tert-Butoxycarbonylamino)ethylthioureidyl β-D-Galactopyranosyl-(1→4)-2-Acetamido-2-Deoxy-β-D-Glucopyranosyl-(1→3)-β-D-Galactopyranosyl-(1→4)-2-Acetamido-2-Deoxy-β-D-Glucopyranoside]
Selectivity for Gal-3 (human Gal-3): 10
IC50 (human Gal-3; [2]): 10.2 ± 3.2 µM

Molecule: CC(=O)N[C@@H]1[C@@H](O)[C@H](O[C@@H]2O[C@H](CO)[C@H](O)[C@H](O[C@@H]3O[C@H](CO)[C@@H](O[C@@H]4O[C@H](CO)[C@H](O)[C@H](O)[C@H]4NC(C)=O)[C@H](O)[C@H]3NC(C)=O)[C@H]2O)[C@@H](CO)O[C@H]1NC(=S)NCCNC(=O)OC(C)(C)C [Glycopolymer 6, (tert-Butoxycarbonylamino)ethylthioureidyl 2-Acetamido-2-Deoxy-β-D-Galactopyranosyl-(1→4)-2-Acetamido-2-Deoxy-β-D-Glucopyranosyl-(1→3)-β-D-Galactopyranosyl-(1→4)-2-Acetamido-2-Deoxy-β-D-Glucopyranoside]
Selectivity for Gal-3 (human Gal-3): 13
IC50 (human Gal-3; [2]): 7.4 ± 0.5 µM

Molecule: Gal-3: Recombinant human galectin-3, N-terminal His-tagged protein construct produced in E. coli; used to induce apoptosis
apoptosis of J774A.1 cells induced by Gal-3 (J774A.1 macrophages): 20.7 ± 0.8% and 15–25%

binding result [1]: binds
B1: glycosylated human IFNγ (natural protein, UniProt P01579 24-161, looked up)
chain: QDPYVKEAENLKKYFNAGHSDVADNGTLFLGILKNWKEESDRKIMQSQIVSFYFKLFKNFKDDQSIQKSVETIKEDMNVKFFNSNKKKRDDFEKLTNYSVTDLNVQRKAIHELIQVMAELSPAAKTGKRKRSQMLFRG
modifications: glycosylated
notes: interferon-gamma, human, glycosylated; also called interferon-gamma; INFγ; source: bought: Sigma-Aldrich

From PMC12118576, “Selective Glycopolymer Inhibitors of Galectin-3: Supportive Anti-Cancer Agents Protecting Monocytes and Preserving Interferon-Gamma Function” (International Journal of Nanomedicine, 2025)
